According to publication PMC4821887, “Identification of chemicals that mimic transcriptional changes associated with autism, brain aging and neurodegeneration” (Nature Communications, 2016):
Where two headings read alike, the source gives them in different places.

System: mouse cortical neuron cultures

Row | Compound | % Dead cells (vehicle subtracted) [%] | further results
1 | C[Si](Cn1cncn1)(c1ccc(F)cc1)c1ccc(F)cc1 [Flusilazole] |  | % Dead cells (vehicle subtracted) (mouse, 24 h, 10 µM): -0.05737%
2 | CCNc1nc(Cl)nc(NC(C)(C)C#N)n1 [Cyanazine] | 0.5036 | 
3 | CNc1cnn(-c2cccc(C(F)(F)F)c2)c(=O)c1Cl [Norflurazon] | -0.1097 | 
4 | CCC(CC)Nc1c([N+](=O)[O-])cc(C)c(C)c1[N+](=O)[O-] [Pendimethalin] | 0.8617 | 
5 | C#CCOC(=O)[C@@H](C)Oc1ccc(Oc2ncc(Cl)cc2F)cc1 [Clodinafop-propargyl] |  | % Dead cells (vehicle subtracted) (mouse, 24 h, 10 µM): -2.625%
6 | CNC(=O)/C=C(\C)OP(=O)(OC)OC | -1.862 | 
7 | OC(c1ccc(Cl)cc1)(c1ccc(Cl)cc1)C(Cl)(Cl)Cl [Dicofol] |  | % Dead cells (vehicle subtracted) (mouse, 24 h, 10 µM): 1.054%
8 | CCc1cccc(CC)c1N(COC)C(=O)CCl [Alachlor] | 3.545 | 
9 | CCCCOC(=O)[C@@H](C)Oc1ccc(Oc2ccc(C#N)cc2F)cc1 [Cyhalofop-butyl] | 0.4476 | 
10 | N#C/N=C1\SCCN1Cc1ccc(Cl)nc1 [Thiacloprid] | 2.238 | 
11 | CCCOC/C(=N\c1ccc(Cl)cc1C(F)(F)F)n1ccnc1 [Triflumizole] |  | % Dead cells (vehicle subtracted) (mouse, 24 h, 10 µM): 1.241%
12 | CN1COCN(Cc2cnc(Cl)s2)/C1=N\[N+](=O)[O-] [Thiamethoxam] | 1.407 | 
13 | COP(=O)(OC)C(O)C(Cl)(Cl)Cl (stereo not shown) [Trichlorfon] | 2.414 | 
14 | Cc1ccccc1CO[C@@H]1C[C@@]2(C(C)C)CC[C@]1(C)O2 (racemic) [Cinmethylin] | -0.5547 | 
15 | Cc1cc(C)nc(NC(=O)NS(=O)(=O)c2ccccc2C(=O)OC2COC2)n1 [Oxasulfuron (benzoic acid)] | -0.4775 | 
16 | O=C(Nc1ccccc1)Nc1ccnc(Cl)c1 [Forchlorfenuron] | 0.6006 | 
17 | CCOC(=O)NC(=S)Nc1ccccc1NC(=S)NC(=O)OCC [Thiophanate] |  | % Dead cells (vehicle subtracted) (mouse, 24 h, 10 µM): -1.666%
18 | Oc1ccc(C(c2ccc(O)cc2)C(Cl)(Cl)Cl)cc1 | 1.986 | 
19 | Abamectin | 4.666 | 
20 | O=C(Nc1ccccc1-c1ccc(Cl)cc1)c1cccnc1Cl [Boscalid] |  | % Dead cells (vehicle subtracted) (mouse, 24 h, 10 µM): -4.045%
21 | CCNP(=S)(OC)O/C(C)=C/C(=O)OC(C)C (stereo not shown) [Propetamphos] | -0.3061 | 

Row | Compound | % Dead cells (vehicle subtracted) [%] | further results
22 | Cc1[nH]c(=O)n(C(C)(C)C)c(=O)c1Cl [Terbacil] |  | % Dead cells (vehicle subtracted) (mouse, 24 h, 10 µM): 6.548%
23 | COc1nn(CSP(=S)(OC)OC)c(=O)s1 [Methidathion] | 0.1761 | 
24 | CN(C)c1nc(=O)n(C2CCCCC2)c(=O)n1C [Hexazinone] |  | % Dead cells (vehicle subtracted) (mouse, 24 h, 10 µM): -2.629%
25 | CC(C)[C@H](C(=O)O[C@H](C#N)c1cccc(Oc2ccccc2)c1)c1ccc(Cl)cc1 [Esfenvalerate] | 4.898 | 
26 | CC(C)C1(C)N=C(c2nc3ccccc3cc2C(=O)O)NC1=O (stereo not shown) [Imazaquin] | -2.73 | 
27 | Chlorpyrifos oxon | 0.8087 | 
28 | COP(=S)(OC)Oc1nc(Cl)c(Cl)cc1Cl [Chlorpyrifos-methyl] | -0.3201 | 
29 | CCOc1nc(F)cc2nc(S(=O)(=O)Nc3c(Cl)cccc3Cl)nn12 [Diclosulam] | 0.003204 | 
30 | CC(C1CC1)C(O)(Cn1cncn1)c1ccc(Cl)cc1 (stereo not shown) [Cyproconazole] |  | % Dead cells (vehicle subtracted) (mouse, 24 h, 0.1 µM): 3.058%; % Dead cells (vehicle subtracted) (mouse, 24 h, 1 µM): 5.165%; % Dead cells (vehicle subtracted) (mouse, 24 h, 10 µM): 6.321%
31 | CCOP(=S)(Oc1cnc(C(C)(C)C)nc1)OC(C)C (stereo not shown) [Tebupirimfos] | 0.1923 | 
32 | CCNc1nc(NC(C)C)nc(SC)n1 [Ametryn] |  | % Dead cells (vehicle subtracted) (mouse, 24 h, 10 µM): 0.09019%
33 | Mancozeb | 1.017 | 
34 | CC(C)NC(=O)N1CC(=O)N(c2cc(Cl)cc(Cl)c2)C1=O [Iprodione] |  | % Dead cells (vehicle subtracted) (mouse, 24 h, 10 µM): 8.376%
35 | O=C(NC(=O)c1c(F)cccc1F)Nc1ccc(OC(F)(F)C(F)OC(F)(F)F)c(Cl)c1 (stereo not shown) [Novaluron] | -1.142 | 
36 | CCNC(=O)NC(=O)/C(C#N)=N/OC [Cymoxanil] | 3.586 | 
37 | CN(C)C(=O)Nc1ccc(Cl)c(Cl)c1 [Diuron] | -0.632 | 
38 | CCOc1cc(C(C)(C)C)ccc1C1COC(c2c(F)cccc2F)=N1 (stereo not shown) [Etoxazole] | -1.186 | 
39 | COc1cccc(C(=O)NN(C(=O)c2cc(C)cc(C)c2)C(C)(C)C)c1C [Methoxyfenozide] | 0.2717 | 
40 | CCC(C)n1c(=O)[nH]c(C)c(Br)c1=O (stereo not shown) [Bromacil] | 5.5524 | 
41 | CCC(C)OC(=O)N1CCCCC1CCO (stereo not shown) [Icaridin] | 2.044 | 
42 | N#CSCSc1nc2ccccc2s1 | -1.603 | 

Row | Compound | % Dead cells (vehicle subtracted) [%] | further results
43 | CCOC(=O)C(C)OC(=O)c1cc(Oc2ccc(C(F)(F)F)cc2Cl)ccc1[N+](=O)[O-] (stereo not shown) [Lactofen] |  | % Dead cells (vehicle subtracted) (mouse, 24 h, 10 µM): -1.539%
44 | CC1(C)C(C=C(Cl)Cl)C1C(=O)OC(C#N)c1cccc(Oc2ccccc2)c1 (stereo not shown) [Cypermethrin] |  | % Dead cells (vehicle subtracted) (mouse, 24 h, 10 µM): -3.377%
45 | CC1=NNC(=O)N(/N=C/c2cccnc2)C1 | -2.3223 | 
46 | CCCCC(CC)COC(=O)c1ccccc1C(=O)O (stereo not shown) |  | % Dead cells (vehicle subtracted) (10 µM chemical, mouse cortical neuron cultures): -0.8176%
47 | CCCSP(=O)(OCC)Oc1ccc(Br)cc1Cl (stereo not shown) [Profenofos] | -2.76 | 
48 | COc1nc(NC(C)C)nc(NC(C)C)n1 | -1.14 | 
49 | CCC(C)(C)C(=O)OC1=C(c2ccc(Cl)cc2Cl)C(=O)OC12CCCCC2 [Spirodiclofen] | 1.699 | 
50 | CC(C)=CC1C(C(=O)OCc2coc(Cc3ccccc3)c2)C1(C)C (stereo not shown) [Resmethrin] | 1.827 | 
51 | CCCCNC(=O)n1c(NC(=O)OC)nc2ccccc21 [Benomyl] |  | % Dead cells (vehicle subtracted) (mouse, 24 h, 10 µM): 1.032%
52 | N#Cc1cc(Br)c(O)c(Br)c1 | -1.631 | 
53 | COc1cc(OC)nc(Sc2cccc(Cl)c2C(=O)O)n1 [Pyrithiobac-sodium] |  | % Dead cells (vehicle subtracted) (mouse, 24 h, 10 µM): 0.5188%
54 | C=CCC1=C(C)[C@@H](OC(=O)[C@@H]2[C@@H](C=C(C)C)C2(C)C)CC1=O [S-Bioallethrin] | -1.697 | 
55 | COC(=O)N(C(=O)N1CO[C@@]2(C(=O)OC)Cc3cc(Cl)ccc3C2=N1)c1ccc(OC(F)(F)F)cc1 [Indoxacarb] |  | % Dead cells (vehicle subtracted) (mouse, 24 h, 10 µM): 0.6208%
56 | O=C(O)c1c(Cl)ccc2cc(Cl)cnc12 [Quinclorac] | -1.41 | 
57 | Nc1c(Cl)c(Cl)nc(C(=O)O)c1Cl [Picloram] | 3.752 | 
58 | Metiram-zinc | -0.5751 | 
59 | CC(C)Nc1nc(Cl)nc(NC(C)C)n1 | 0.5652 | 
60 | COC(=O)c1ccccc1C(=O)O [Methyl hydrogen phthalate] | 1.938 | 
61 | O=S(=O)(O)C(F)(F)C(F)(F)C(F)(F)C(F)(F)C(F)(F)C(F)(F)C(F)(F)C(F)(F)F [Perfluorooctane sulfonic acid] | 6.21 | 
62 | CS(=O)(=O)c1cc(C(F)(F)F)ccc1C(=O)c1cnoc1C1CC1 [Isoxaflutole] |  | % Dead cells (vehicle subtracted) (mouse, 24 h, 10 µM): 2.416%
